Literature values in patent publication US20150313904A1 (Teva Pharmaceuticals Ltd., priority 2014, published 2015).

System: Crohn's disease patients
Conditions: azathioprine-treated patients; Summers et al. 1979

**Q.** For Cn1cnc([N+](=O)[O-])c1Sc1ncnc2nc[nH]c12 [azathioprine], which “time of maximum decrease in the mean CDAI score” value is on record?
**A.** The value was 9 weeks.
